Measurements from patent US6440987B1, “Antipruritic” (Toray Industries, Inc., priority 1996, dated 2002).

Assays:
[1] = test system: scratching behavior induced by Compound 48/80; design: species or system ddY mice; conditions: mouse, in vivo, sc
guinea pig ileum = test: Assay of opioid activity by guinea pig ileum assay (electrically evoked contraction of longitudinal muscle strip); conditions: for IC50: Cavia porcellus, inhibition of electrically evoked contraction, absence of antagonist; for Ke (nM) Naloxone (100 nM): naloxone as μ antagonist; for Ke (nM) nor-BNI (5 nM): nor-BNI as κ antagonist
Method: Assay of opioid activity by Guinea pig ileum assay.
Male Hartley guinea pigs were used. The guinea pig was killed with a blow, and the ileum excised; the lumen of ileum was washed with a nutritious fluid; and only a piece of longitudinal muscle was stripped. This longitudinal muscle strip was suspended in a Magnus tube filled with Krebes-Henseleit solution (NaCl 135 mM; KCl 4.8 mM; CaCl2 3.4 mM; KH2PO4 1.2 mM; NaHCO3 8.3 mM; MgSO4, 2.5 mM; and glucose 11 mM) kept at 37° C., and gassed with a mixture of 5% carbon dioxide and 95% oxygen. Electrical stimulation was delivered at a rate of 0.1 Hz with 0.5 ms pulses through ring-shaped platinum electrodes placed at upper and lower levels in a Magnus tube. Tissue contractions were recorded via an isometric transducer on a polygraph.
(§1) The test drug was cumulatively added until it inhibited over 50% the contraction of specimen evoked by the electrical stimulation, in the presence or absence of naloxone as a μ antagonist, or nor-BNI as a κ antagonist, and IC50s were calculated for respective experimental conditions. From the difference in drug efficacy in the presence and absence of the antagonist, Ke values were calculated on the basis of following equations.
(§2) Ke=[Concentration of antagonist added]/(Dose ratio−1)
Dose ratio=IC50 in the presence of antagonist/IC50 in the absence of antagonist

mouse vas deferens = test: Assay of opioid activity by mouse vas deferens assay (electrically evoked contraction); conditions: for Ke (nM) NTI (10 nM): NTI as δ antagonist; for IC50: inhibition of electrically evoked contraction, absence of antagonist; for Ke (nM) nor-BNI (10 nM): nor-BNI as κ antagonist; for Ke (nM) Naloxone (30 nM): naloxone as μ antagonist
Method: Assay of opioid activity by mouse vas deferens assay
Male ddY mice were used for the experiment. The vas deferens specimen removed from the animal was suspended in a Magnus tube filled with Krebes-Henseleit solution (NaCl […]; KCl 5.9 mM; CaCl2 2.5 mM; NaH2PO4 1.2 mM; NaHCO3 15.3 mM; and glucose 11.5 mM) kept at 37° C., and gassed with a mixture of 5% carbon dioxide and 95% oxygen. Electrical stimulation was delivered at a rate of 0.1 Hz with 1.0 ms pulses through ring-shaped platinum electrodes placed at upper and lower levels in a Magnus tube. Tissue contractions were recorded via an isometric transducer on a polygraph.
as §1, with “test drug” for “The test drug”, “μ antagonist, nor-BNI as” for “μ antagonist, or nor-BNI as”, “κ antagonist, or NTI as a δ antagonist and IC50s” for “κ antagonist, and IC50s”
as §2
IC50 ratio=IC50 in the presence of antagonist/IC50 in the absence of antagonist

[2] = test system: itching of erupted lesions of urticaria; test: Topical application to erupted lesions of urticaria, intensity of itching; type: in vivo, human; design: key to Intensity of itching five minutes after the treatment: itching whose intensity was evaluated as moderate (ranked as “++”); completely eradicated five minutes after the treatment (ranked as “−”); conditions: male adult
Method: An opioid compound selectively acting on a κ receptor, (−)-17-(cyclopropylmethyl)-3,14β-dihydroxy-4,5α-epoxy-6β-[N-methyl-trans-3-(3-furyl)acrylamido]morphinan hyrochloride 7, [drawing 52]
was dissolved in physiological saline, to give an aqueous solution with a concentration of 40 μg/ml. This aqueous solution was topically applied to three erupted lesions of urticaria, on the lower limb of an adult at a dose of 0.2 μg/cm^2.

[3] = test system: itching due to atopic dermatitis; test: Topical application to skin lesions of a patient with atopic dermatitis, intensity of itching; type: in vivo, human
Method: The drug solution was applied on five spots with a volume of about 50 μl per 10 cm^2, which was equivalent to a topical dose of 0.2 μg/cm^2. As a comparison, indomethacin cream (having a drug concentration of 7.5 mg/g) was applied at a dose of 75 μg/cm2 in the same manner.

[4] = topical, Compound 7 0.2 μg/cm^2, indomethacin cream 75 μg/cm2, prior to application +++

Structure (SMILES) | Inhibition (%) of scratching behavior [1] | IC50 (guinea pig ileum) | Ke (nM) Naloxone (100 nM) (guinea pig ileum) | Ke (nM) nor-BNI (5 nM) (guinea pig ileum) | Ke (nM) NTI (10 nM) (mouse vas deferens) | IC50 (mouse vas deferens) | Ke (nM) nor-BNI (10 nM) (mouse vas deferens) | melting point | Ke (nM) Naloxone (30 nM) (mouse vas deferens) | also measured
CN(C(=O)NCc1ccccc1)[C@H]1CC[C@@]2(O)[C@H]3Cc4ccc(O)c5c4[C@@]2(CCN3CC2CC2)[C@H]1O5.O=C(O)C(O)C(O)C(=O)O [Compound 12, 17-cyclopropylmethyl-3,14β-dihydroxy-4,5α-epoxy-6α-(N-methyl-N-benzylureido)morphinan tartrate] | 39% |  |  |  |  |  |  |  |  | 
Cc1cccc(C#CC(=O)N(C)[C@@H]2CC[C@@]3(O)[C@H]4Cc5ccc(O)c6c5[C@@]3(CC[N+]4([O-])CC3CC3)[C@H]2O6)c1 (stereo partly drawn) [Compound 6, 17-cyclopropylmethyl-4,5α-epoxy-3,14β-dihydroxy-6β-[N-methyl-3-(3-methylphenyl)propyolamido]morphinan-N-oxide] |  | 11.3 nM | 75.1 nM | 0.89 nM | 20 nM | 4.6 nM | 0.26 nM | 192 to 202 °C (dec.) |  | 
CN(C(=O)C#Cc1ccc(C(F)(F)F)cc1)[C@@H]1CC[C@@]2(O)[C@H]3Cc4ccc(O)c5c4[C@@]2(CC[N+]3([O-])CC2CC2)[C@H]1O5 (stereo partly drawn) [Compound 5, 17-cyclopropylmethyl-4,5α-epoxy-3,14β-dihydroxy-6β-[N-methyl-3-(4-trifluoromethylphenyl)propyolamido]morphinan-N-oxide] |  | 1.55 nM | 29.5 nM | 0.19 nM | 5.0 nM | 0.59 nM | 0.33 nM | 205 to 208 °C (dec.) | 5.9 nM | 
COc1cccc(/C=C/C(=O)N(C)[C@@H]2CC[C@@]3(O)[C@H]4Cc5ccc(O)c6c5[C@@]3(CC[N+]4([O-])CC3CC3)[C@H]2O6)c1 (stereo partly drawn) [Compound 4, 17-cyclopropylmethyl-4,5α-epoxy-3,14β-dihydroxy-6β-(N-methyl-3-methoxycinnamamido)morphinan-N-oxide] |  | 4.09 nM | 28.7 nM | 0.09 nM | 11 nM | 1.8 nM | 0.67 nM | 234 to 236.8 °C (dec.) | 50 nM | 
CN(C(=O)Cc1ccc(Cl)c(Cl)c1)C(CN1CCCC1)c1ccccc1.Cl (stereo not drawn) [Compound 20] | 62% |  |  |  |  |  |  |  |  | 
CN(C(=O)/C=C/c1ccoc1)[C@@H]1CC[C@@]2(O)[C@H]3Cc4ccc(O)c5c4[C@@]2(CC[N+]3(C)CC2CC2)[C@H]1O5.[I-] (stereo partly drawn) [Compound 1, 17-cyclopropylmethyl-3,14β-dihydroxy-4,5α-epoxy-17-methyl-6β-(N-methyl-trans-3-(3-furyl)acrylamido)morphinanium iodide] |  | 1.94 nM | 16.67 nM | 0.03 nM | 11.23 nM | 4.42 nM | 0.17 nM | 202.4 to 207.9 °C (dec.) | 14.18 nM | 
Cl.O=C(C1CCc2cc(Cl)c(Cl)cc21)N1CCSCC1CN1CCCC1 (stereo not drawn) [Compound 21, 3-(1-pyrrolidinylmethyl)-4-[5,6-dichloro-1-indancarbonyl]-tetrahydro-1,4-thiazine hydrochloride] | 23% |  |  |  |  |  |  |  |  | 
COc1cccc(/C=C/C(=O)N(C)[C@@H]2CC[C@@]3(O)[C@H]4Cc5ccc(O)c6c5[C@@]3(CC[N+]4(C)CC3CC3)[C@H]2O6)c1.[I-] (stereo partly drawn) [Compound 2, 17-cyclopropylmethyl-3,14β-dihydroxy-4,5α-epoxy-17-methyl-6β-(N-methyl-3-methoxycinnamamido)morphinanium.iodide] |  | 6.71 nM | 98.2 nM | 0.54 nM | 25 nM | 5.9 nM | 0.45 nM |  | 100 nM | 
CN(C(=O)/C=C/c1ccoc1)[C@@H]1CC[C@@]2(O)[C@H]3Cc4ccc(O)c5c4[C@@]2(CC[N+]3([O-])CC2CC2)[C@H]1O5 (stereo partly drawn) [Compound 3, 17-cyclopropylmethyl-4,5α-epoxy-3,14β-dihydroxy-6β-[N-methyl-trans-3-(3-furyl)acrylamido]morphinan-N-oxide] |  | 1.06 nM |  | 0.02 nM |  | 2.14 nM | 0.040 nM | 238 to 239.8 °C (dec.) | 30.48 nM | 
CN(C(=O)/C=C/c1ccoc1)[C@@H]1CC[C@@]2(O)[C@H]3Cc4ccc(O)c5c4[C@@]2(CCN3CC2CC2)[C@H]1O5.Cl [Compound 7, (−)-17-(cyclopropylmethyl)-3,14β-dihydroxy-4,5α-epoxy-6β-[N-methyl-trans-3-(3-furyl)acrylamido]morphinan hyrochloride] |  |  |  |  |  |  |  |  |  | Intensity of itching five minutes after the treatment ([2]; urticaria lesions on lower limb, topical 0.2 μg/cm^2 (40 μg/ml in saline), before treatment “++”): −; Duration of no itching state ([2]; urticaria, topical 0.2 μg/cm^2): about five; Duration of no itching state ([3]; topical 0.2 μg/cm^2): at least three; Relief from itching (in words) ([3]; topical, Compound 7 0.2 μg/cm^2 (in five minutes), indomethacin cream 75 μg/cm2): eradicated itching completely; Intensity of itching 5 minutes after application [3, 4]: −; Intensity of itching 10 minutes after application [3, 4]: −; Intensity of itching 3 hours after application [3, 4]: −
